Reference: the supplement of paper PMC8967900

Legend:
Assay in all cases: selective drug sensitivity score (sDSS, relative to normal bone marrow) (sDSS (score)); higher = more potent and effective on the cell line relative to normal bone marrow cells
Details in all cases: 72 h
COG-LL-319h = test system: COG-LL-319h
COG-LL-317 = test system: COG-LL-317
CCRF-HSB2 = test system: CCRF-HSB2
COG-LL-332h = test system: COG-LL-332h
COG-LL-355h = test system: COG-LL-355h
HAL-01 = test system: HAL-01
TANOUE = test system: TANOUE
P30-OHKUBO = test system: P30-OHKUBO
DND-41 = test system: DND-41
HPB-ALL = test system: HPB-ALL
NALM-16 = test system: NALM-16
REH = test system: REH
KASUMI-10 = test system: KASUMI-10
MHH-CALL-3 = test system: MHH-CALL-3
SUP-B15 = test system: SUP-B15
RCH-ACV = test system: RCH-ACV
PF-382 = test system: PF-382
KASUMI-2 = test system: KASUMI-2
JURKAT = test system: JURKAT
COG-LL-402h = test system: COG-LL-402h
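Also: ALL cell lines in 384-well plates, five doses spanning 10,000-fold, each plate scaled between vehicle and 100 µmol/L benzalkonium chloride controls, sDSS an adapted area-under-curve metric.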

| Compound | selective drug sensitivity score (COG-LL-319h) | selective drug sensitivity score (COG-LL-317) | selective drug sensitivity score (CCRF-HSB2) | selective drug sensitivity score (COG-LL-332h) | selective drug sensitivity score (COG-LL-355h) | selective drug sensitivity score (HAL-01) | selective drug sensitivity score (TANOUE) | selective drug sensitivity score (P30-OHKUBO) | selective drug sensitivity score (DND-41) | selective drug sensitivity score (HPB-ALL) | selective drug sensitivity score (NALM-16) | selective drug sensitivity score (REH) | selective drug sensitivity score (KASUMI-10) | selective drug sensitivity score (MHH-CALL-3) | selective drug sensitivity score (SUP-B15) | selective drug sensitivity score (RCH-ACV) | selective drug sensitivity score (PF-382) | selective drug sensitivity score (KASUMI-2) | selective drug sensitivity score (JURKAT) | selective drug sensitivity score (COG-LL-402h) |
| --- | --- | --- | --- | --- | --- | --- | --- | --- | --- | --- | --- | --- | --- | --- | --- | --- | --- | --- | --- | --- |
| NCCNc1ccc(NCCN)c2c1C(=O)c1ccncc1C2=O [Pixantrone] (top concentration 10000 nM) | -2.76 | -2.76 | -2.16 | -2.46 | 0.34 | -1.36 | -2.76 | -1.06 | -1.76 | -2.66 | -2.76 | 0.24 | -1.36 | -2.76 | -2.76 | -2.76 | -1.86 | -2.76 | -2.76 | -2.76 |
| c1cc(CN2CCCNCCNCCCNCC2)ccc1CN1CCCNCCNCCCNCC1 [Plerixafor] (top concentration 10000 nM) | 0 | 0 | 0 | 0 | 0 | 0 | 0 | 0 | 0 | 0 | 0 | 0.1 | 0 | 0 | 0 | 0 | 0 | 0 | 0 | 0 |
| O=C(c1ccc(OCCN2CCCCC2)cc1)c1c(-c2ccc(O)cc2)sc2cc(O)ccc12 [Raloxifene] (top concentration 10000 nM) | -2.28 | 0.42 | 2.42 | 0.92 | 3.92 | 1.82 | -1.38 | 1.82 | 4.52 | 5.02 | -2.28 | 4.62 | -2.28 | -2.28 | -2.18 | 0.02 | -0.58 | -2.28 | -0.58 | -1.68 |
| CN(C)C(=O)c1cc2cnc(Nc3ccc(N4CCNCC4)cn3)nc2n1C1CCCC1 [Ribociclib] (top concentration 10000 nM) | 2.18 | 0.38 | 1.48 | 1.58 | 0.18 | 0.38 | -2.02 | 6.58 | 1.68 | 2.78 | 1.48 | -0.42 | 0.08 | 3.18 | 1.58 | 8.08 | 2.88 | -0.92 | 0.48 | 4.58 |
| CN1CCN(CCOc2cc(OC3CCOCC3)c3c(Nc4c(Cl)ccc5c4OCO5)ncnc3c2)CC1 [Saracatinib] (top concentration 10000 nM) | 12.8 | 1.78 | 28.9 | 7.38 | 0.48 | -1.32 | -2.02 | 5.58 | 2.18 | -1.02 | -2.02 | -2.02 | 1.48 | 0.08 | 17 | 7.28 | 8.18 | 1.78 | -0.62 | 8.68 |
| C=CC(=O)Nc1cccc(Nc2nc(Nc3ccc(OCCOC)cc3)ncc2F)c1 [Spebrutinib] (top concentration 1000 nM) | -0.06 | -0.16 | 0.04 | -0.16 | 0.64 | 8.34 | -0.16 | 4.64 | -0.16 | -0.16 | -0.16 | -0.16 | 3.64 | 2.34 | 0.04 | 4.14 | -0.16 | -0.16 | 0.74 | 0.84 |
| C[C@@H]1CN(Cc2ccc(F)cc2)[C@@H](C)CN1C(=O)c1cc2c(C(=O)C(=O)N(C)C)cn(C)c2cc1Cl [Talmapimod] (top concentration 10000 nM) | 0 | 0 | 0 | 0 | 0 | 0 | 0 | 0.2 | 0.5 | 0 | 0 | 2.8 | 0 | 0 | 2.8 | 4.9 | 0 | 0 | 0.9 | 0 |
| C[C@@H](C(=O)O)c1ccc(-c2ccccc2)c(F)c1 [Tarenflurbil] (top concentration 10000 nM) | -0.16 | -0.16 | -0.16 | 4.14 | -0.16 | 4.74 | 4.74 | -0.16 | 0.54 | -0.16 | 0.04 | -0.06 | -0.16 | -0.16 | 0.44 | -0.16 | -0.16 | -0.16 | -0.16 | -0.16 |
| CNC(=O)c1cc(COc2nnc(Nc3ccc(Cl)cc3)c3ccoc23)ccn1 [Telatinib] (top concentration 10000 nM) | 0 | 0 | 0 | 0 | 0 | 1.8 | 0 | 2.9 | 0 | 0.9 | 0 | 2.6 | 0 | 0 | 0 | 0.2 | 0 | 0 | 0 | 0 |
| O=c1sn(-c2cccc3ccccc23)c(=O)n1Cc1ccccc1 [Tideglusib] (top concentration 3000 nM) | -0.3 | -0.3 | -0.3 | -0.3 | -0.3 | -0.3 | -0.3 | -0.3 | 3.4 | -0.3 | -0.3 | 0.4 | 0.3 | -0.3 | -0.3 | -0.3 | -0.3 | -0.3 | -0.3 | -0.3 |
| COc1cc2nccc(Oc3ccc(NC(=O)Nc4cc(C)on4)c(Cl)c3)c2cc1OC [Tivozanib] (top concentration 10000 nM) | 12.6 | 0.86 | 17.9 | 12.2 | -1.04 | -0.74 | -3.64 | 4.56 | 0.36 | -0.44 | -3.44 | 0.36 | 2.96 | -3.64 | 21.7 | 10.9 | 1.36 | 4.96 | 0.96 | 3.96 |
| Cc1cc(Nc2cc(N3CCN(C)CC3)nc(Sc3ccc(NC(=O)C4CC4)cc3)n2)n[nH]1 [Tozasertib] (top concentration 10000 nM) | 19.2 | 21.6 | 21.9 | 19.9 | 2.96 | 8.36 | -6.64 | 22.2 | 0.36 | 7.46 | -0.34 | 21.2 | 15.6 | 9.66 | 19.1 | 17.9 | 7.06 | 12.3 | 1.76 | 15.4 |
| CC1=C(/C=C/C(C)=C/C=C/C(C)=C/C(=O)O)C(C)(C)CCC1 [Tretinoin] (top concentration 10000 nM) | -2.4 | -1.8 | -2.4 | -2.4 | -1 | 1.2 | -2.4 | -2.4 | -2.4 | -1.7 | -2.4 | -1.8 | -1.8 | -1.2 | -2.4 | -2.4 | -2.4 | -2.4 | -2.4 | -2.4 |
| COC(=O)c1ccc2c(c1)[nH]c1ncnc(NCCCN3CCCCC3)c12 [UM729] (top concentration 10000 nM) | -0.06 | 0.94 | 2.84 | 1.94 | 1.44 | -0.06 | -0.06 | 1.44 | 0.64 | 0.64 | 0.44 | 0.24 | 2.74 | 0.54 | 2.24 | 3.24 | 1.24 | -0.06 | -0.06 | 6.34 |
| COc1cc2c(NC3CCN(C(C)C)CC3)nc(N3CCC(F)(F)CC3)nc2cc1OCCCN1CCCC1 [UNC0642] (top concentration 10000 nM) | -1.44 | 1.66 | -0.54 | 1.46 | 4.36 | -3.54 | -3.74 | 2.06 | 5.56 | -2.84 | -3.74 | -0.14 | -1.64 | -1.64 | 3.36 | 2.56 | -2.14 | -0.84 | -3.64 | 2.66 |
| O=C(c1ccc(C(=O)N2CCC(N3CCCC3)CC2)c(Nc2ccccc2)c1)N1CCC(N2CCCC2)CC1 [UNC1215] (top concentration 10000 nM) | 0 | 0 | 0 | 0 | 0 | 0 | 0 | 0 | 0 | 0 | 0 | 0.5 | 0 | 0 | 0 | 0 | 0 | 0 | 0 | 0 |
| CCCC(CCC)C(=O)O [Valproic_acid] (top concentration 1000000 nM) | 0 | 0 | 0 | 0 | 0 | 0 | 0 | 0 | 0 | 0 | 0 | 0 | 0 | 0 | 0 | 0 | 0 | 0 | 0 | 0 |
| Clc1ccc(Nc2nnc(Cc3ccncc3)c3ccccc23)cc1 [Vatalanib] (top concentration 10000 nM) | 0 | 0.5 | 1.1 | 0.7 | 0 | 0 | 0 | 0 | 0 | 0 | 0 | 0 | 0 | 0 | 0 | 0 | 0 | 0 | 0 | 0 |
| CCCS(=O)(=O)Nc1ccc(F)c(C(=O)c2c[nH]c3ncc(-c4ccc(Cl)cc4)cc23)c1F [Vemurafenib] (top concentration 10000 nM) | 0.36 | 3.26 | 4.06 | 2.96 | 0.86 | 0.16 | -1.14 | 3.86 | 3.66 | -0.44 | -1.14 | 4.86 | -0.84 | -1.14 | 2.26 | 3.36 | 3.56 | -1.14 | 2.26 | -1.14 |
